{
  "source": "patent US20080102130A1",
  "about": "“DRY GRANULATED PHARMACEUTICAL COMPOSITIONS AND METHODS FOR PRODUCING SAME” (Janssen Pharmaceutica NV, priority 2006, published 2008)",
  "experiment": "Particle size distribution of the drug substance",
  "assay_type": "physicochemical",
  "source_text": "Tapentadol is predominantly rectangular or rod-shaped crystalline powder. […] The D10 can be as low as 5 microns while the D99 can be as high as 500 microns. Although, the particle size distribution of the drug substance is controlled during crystallization, milling or micronizing the API to less than a micron size would not affect processability, as described herein, or the attribute of the drug product. Other APIs with similar properties such as Tramadol are expected to have a similar behavior.",
  "data": [
    {"compound": "CC[C@@H](c1cccc(O)c1)[C@@H](C)CN(C)C", "note": "[Tapentadol]", "values": [
      {"measurement": "Particle size distribution D10", "result": "≥ 5", "unit": "microns"},
      {"measurement": "Particle size distribution D99", "result": "≤ 500", "unit": "microns"}
    ]}
  ]
}
